Assay: Aqueous solubility of Compound (I) and its salts
Assay type: physicochemical
Settings: aqueous medium; free base
Source text: In an effort to enhance the solubility of Compound (I) in aqueous vehicle, ‘salt forms’ of Compound (I) were explored.

solubility: 13 µg/mL
Compound: COc1ccc(CNc2nc(N3CCC[C@H]3COC(=O)CCCCCO[N+](=O)[O-])ncc2C(=O)NCc2ncccn2)cc1Cl [Compound (I), [(2S)-1-(4-{[(3-chloro-4-methoxyphenyl)methyl]amino}-5-{[(pyrimidin-2-yl)methyl]carbamoyl}pyrimidin-2-yl)pyrrolidin-2-yl]methyl 6-(nitrooxy)hexanoate]
